From patent US20090137034A1, “METHODS FOR PERFUSION AND PLATING OF PRIMARY HEPATOCYTES AND A MEDIUM THEREFORE” (MASSACHUSETTS INSTITUTE OF TECHNOLOGY, priority 2002, published 2009)

How the values were obtained:
CYP 1A1 = CYP 1A1 inducibility/P450 function in primary hepatocytes in collagen sandwich culture (EROD assay, 3-MC induction); format: cell-based; conditions: mechanism under investigation
Protocol: To study the effect of different compounds on the function of hepatocyte function and phenotype, hepatocytes were isolated according to techniques well known in the art and cultured in a collagen sandwich configuration. Hepatocytes were induced with the addition of 2 nM 3-methylcholanthrene (3-MC). CYP 1A1 was measured using the EROD assay as described in Pearce et al., 1996. Albumin secretion was measured using ELISA, as described in Dunn et al., 1991. Western blot analysis was performed using techniques well known in the art, using an antibody to CYP1A1.

activated macrophages = conditions: stated as an observation, no source given; cited from earlier work

P450 function (CYP 1A1): protection of P450 function
SMILES: N[C@H]1C(O)O[C@H](CO)[C@@H](O)[C@@H]1O (some centres unmarked) [glucosamine]
NO synthesis (activated macrophages): inhibits NO synthesis
